Laboratory results: patent US10975101B2, “Ultra-potent vinca alkaloids: added molecular complexity further disrupts the tublin dimer-dimer interface” (priority 2016, dated 2021)
“And” between values parts separate entries of the source, which are not always exact repeats. Equal entries are not always repeated. Where two headings read alike, the source gives them in different places.

Legend:
[1] = system: tubulin; experiment: BODIPY-vinblastine/tubulin competitive displacement assay; type: binding; conditions: tubulin 0.91 μM, BODIPY-VBL 1.8 μM, vinblastine analogue 18 μM, 37° C., average of 4 measurements ± SD
Description: As a consequence, the commercially available BODIPY-vinblastine fluorescent probe was used to assess tubulin binding and develop its use in a direct competitive binding assay.^15 [(a) Jiang et al., Cancer Res. 1998, 58, 5389; (b) Zhang et al., PloS one 2009, 4, e4881; (c) Rai et al., PloS one 2012, 7, e44311 and (d) Rashid et al., Biochemistry 2015, 54, 2149.]
In carrying out this study, tubulin (0.1 mg/mL, 0.91 μM) was incubated with BODIPY-vinblastine (BODIPY-VBL, 1.8 μM) and a vinblastine analogue (18 μM) at 37° C. in PEM buffer containing 850 μM GTP. The BODIPY-VBL fluorescence intensity (FI) (ex: 480 nm, em: 514 nm) of 100 μL aliquots from each incubation were measured in a fluorescence micro-plate reader at 37° C. Control studies were performed with BODIPY-VBL (control 1) in the absence of a competitive ligand (maximum FI enhancement due to tubulin binding) and (control 2) in the absence of tubulin (no FI enhancement due to tubulin binding). % BODIPY-VBL displacement was calculated by the formula (control 2 FI−experiment FI)/(control 2 FI−control 1 FI)×100. Reported values are the average 4 measurements±the standard deviation.
100 μL of 1 mg/mL tubulin in PEM and 25 μL of 72 μM BODIPY-VBL in DMSO were added to 850 μL of buffer (PEM+1 mM GTP). The solution was incubated at 37° C. for 15 minutes, after which 25 μL of 720 μM competitive ligand in DMSO was added. The solution was incubated for an additional 60 minutes at 37° C., after which 100 μL aliquots of each incubation were transferred into the wells of a 96-well plate (warmed to 37° C. in the plate reader). The BODIPY-vinblastine fluorescence intensity was measured (Ex 480 nm, Em 514 nm, Cutoff 495 nm) at 37° C. Control measurements were performed with BODIPY-VBL (control 1) in the absence of a competitive ligand (maximum FI enhancement due to tubulin binding) and (control 2) in the absence of tubulin (no FI enhancement due to tubulin binding). % BODIPY-VBL displacement was calculated by the formula (Control 2 FI−Experiment FI)/(Control 2 FI−Control 1 FI)×100. PEM: 80 mM PIPES-K pH 6.8, 2 mM MgSO4, 0.5 mM EGTA pH 6.8.

[2] = system: HCT116/VM46 (a vinblastine-resistant strain of HCT116) cells; conditions: previously reported (footnote a, Barker et al. 2013) or background art table, cited from earlier work
[3] = system: L1210 (mouse lymphocytic leukemia) cells; conditions: previously reported in Barker et al., ACS Med. Chem. Lett. 2013, 4, 985; cited from earlier work
[4] = system: HCT116 (human colorectal carcinoma) cells; conditions: previously reported (footnote a, Barker et al. 2013) or background art table, cited from earlier work
[5] = system: L1210 (mouse lymphocytic leukemia) cells; experiment: Cell growth inhibition assay, L1210; type: cell-based; conditions: 72 hours incubation, phosphatase assay
Description: (§1) Compounds were tested for their cell growth inhibition of L1210 (ATCC no. CCL-219, mouse lymphocytic leukemia) cells, HCT116 (ATCC no. CCL-247, human colorectal carcinoma) cells, and HCT116/VM46 (a vinblastine-resistant strain of HCT116) cells in culture. A population of cells (>1×10^6 cells/mL as determined with a hemocytometer) was diluted with an appropriate amount of Dulbecco's Modified Eagle Medium (DMEM, Gibco) containing 10% fetal bovine serum (FBS, Gibco) to a final concentration of 30000 cells/mL.
(§2) To each well of a 96-well plate (Corning Costar), 100 μL of the cell media solution was added with a multichannel pipet. The cultures were incubated at 37° C. in an atmosphere of 5% CO2 and 95% humidified air for 24 hours. The test compounds were added to the plate as follows: test substances were diluted in DMSO to a concentration of 1 mM and 10-fold serial dilutions were performed on a separate 96-well plate. Fresh culture medium (100 μL) was added to each well of cells to constitute 200 μL of medium per well followed by 2 μL of each test agent. Compounds were tested in duplicate (n=2-18 times) at six concentrations between 0-1000 nM or 0-10000 nM. Following addition, cultures were incubated for an additional 72 hours.
(§3) A phosphatase assay was used to establish the IC50 values as follows: the media in each cell was removed and 100 μL of phosphatase solution (100 mg phosphatase substrate in 30 mL of 0.1 M NaOAc, pH 5.5, 0.1% Triton X-100 buffer) was added to each well. The plates were incubated at 37° C. for either 5 minutes (L1210) or 15 minutes (HCT116 and HCT116/VM46). After the given incubation time, 50 μL of 0.1 N NaOH was added to each well and the absorption at 405 nm was determined using a 96 well plate reader. As the absorption is directly proportional to the number of living cells, the IC50 values were calculated and the reported values represent of the average of 4-36 determinations (SD±10%).

[6] = system: HCT116 (human colorectal carcinoma) cells; experiment: cells; type: cell-based
Description: as §1, §2, §3

[7] = system: HCT116/VM46 (a vinblastine-resistant strain of HCT116) cells; experiment: Cell growth inhibition assay, HCT116/VM46; type: cell-based, human; conditions: for IC50: 72 hours incubation, phosphatase assay, Pgp-overexpressing resistant line; for increase in potency relative to vinblastine, HCT116/VM46: resistant line
Description: as §1, §2, §3

[8] = system: vinblastine sensitive tumor cell lines (L1210 and HCT116); experiment: Cell growth inhibition, vinblastine-sensitive lines stated together; type: cell-based; conditions: cell growth inhibition; for increase in potency relative to vinblastine: vinblastine-sensitive lines
Description: as §1, §2, §3

[9] = 72 hours incubation, phosphatase assay, read-out: IC50, HCT116
[10] = listed beside % displacement in second TABLE 5, read-out: IC50 (nM, HCT116)

Structure (SMILES) | % displacement of BODIPY-vinblastine bound to tubulin [1] | IC50 [2] [nM] | IC50 [3] [nM] | IC50 [4] [nM] | IC50 [5] [nM] | IC50 [6, 9] [nM] | IC50 [6, 10] [nM] | IC50 [7] [nM] | increase in potency relative to vinblastine, HCT116/VM46 [7] [fold] | more potent than the C20′ urea 9 [8] [fold] | increase in potency relative to vinblastine [8] | also measured
CC[C@]1(O)C[C@@H]2CN(CCc3c([nH]c4ccccc34)[C@@](C(=O)OC)(c3cc4c(cc3OC)N(C)[C@H]3[C@@](O)(C(=O)OC)[C@H](OC(C)=O)[C@]5(CC)C=CCN6CC[C@]43[C@@H]65)C2)C1 [Compound 1, Vinblastine, reference compound] | 31 ± 9% | 600 | – | – | – | – | – | – | – | – | – | % displacement of BODIPY-vinblastine bound to tubulin ([1]; listed as vinblastine): 31%
CC[C@]1(NC(=O)N2CCCC2)C[C@H]2CN(CCc3c([nH]c4ccccc34)[C@@](C(=O)OC)(c3cc4c(cc3OC)N(C)[C@H]3[C@@](O)(C(=O)OC)[C@H](OC(C)=O)[C@]5(CC)C=CCN6CC[C@]43[C@@H]65)C2)C1 [Compound 8] | – | 50 | 0.7 | 0.72 | – | – | – | – | – | – | – | IC50 ([4]; listed as drawing 14): 0.7 nM
CC[C@]1(NC(=O)N2Cc3ccccc3C2)C[C@H]2CN(CCc3c([nH]c4ccccc34)[C@@](C(=O)OC)(c3cc4c(cc3OC)N(C)[C@H]3[C@@](O)(C(=O)OC)[C@H](OC(C)=O)[C@]5(CC)C=CCN6CC[C@]43[C@@H]65)C2)C1 [Compound 9] | – | 7.5 | 0.51 | 0.6 | – | – | – | – | – | – | – | IC50 ([4]; listed as drawing 15): 0.5 nM; IC50 ([2]; listed as drawing 15): 4 nM
CC[C@]1(NC(=O)N2CCCCC2)C[C@H]2CN(CCc3c([nH]c4ccccc34)[C@@](C(=O)OC)(c3cc4c(cc3OC)N(C)[C@H]3[C@@](O)(C(=O)OC)[C@H](OC(C)=O)[C@]5(CC)C=CCN6CC[C@]43[C@@H]65)C2)C1 [Compound 23] | – | 50 | 5.5 | 3.9 | – | – | – | – | – | – | – | –
CC[C@]1(NC(=O)N2Cc3ccc(OC)cc3C2)C[C@H]2CN(CCc3c([nH]c4ccccc34)[C@@](C(=O)OC)(c3cc4c(cc3OC)N(C)[C@H]3[C@@](O)(C(=O)OC)[C@H](OC(C)=O)[C@]5(CC)C=CCN6CC[C@]43[C@@H]65)C2)C1 [Compound 35] | – | 8.6 | 0.48 | 0.54 | – | – | – | – | – | – | – | –
CC[C@]1(NC(=O)N2Cc3ccc(NC(=O)c4ccncn4)cc3C2)C[C@H]2CN(CCc3c([nH]c4ccccc34)[C@@](C(=O)OC)(c3cc4c(cc3OC)N(C)[C@H]3[C@@](O)(C(=O)OC)[C@H](OC(C)=O)[C@]5(CC)C=CCN6CC[C@]43[C@@H]65)C2)C1 [Compound 58] | 100% and 105 ± 5% | – | – | – | 0.062 | 0.074 | 0.07 | 0.88 | 700 | 10 | 100 fold | –
CC[C@]1(NC(=O)N2Cc3ccc(NC(=O)c4cnccn4)cc3C2)C[C@H]2CN(CCc3c([nH]c4ccccc34)[C@@](C(=O)OC)(c3cc4c(cc3OC)N(C)[C@H]3[C@@](O)(C(=O)OC)[C@H](OC(C)=O)[C@]5(CC)C=CCN6CC[C@]43[C@@H]65)C2)C1 [Compound 60] | 100% and 104 ± 12% | – | – | – | 0.059 | 0.075 | 0.07 | 0.83 | 700 | 10 | 100 fold | –
CC[C@]1(NC(=O)N2Cc3ccc(NC(=O)c4cccnn4)cc3C2)C[C@H]2CN(CCc3c([nH]c4ccccc34)[C@@](C(=O)OC)(c3cc4c(cc3OC)N(C)[C@H]3[C@@](O)(C(=O)OC)[C@H](OC(C)=O)[C@]5(CC)C=CCN6CC[C@]43[C@@H]65)C2)C1 [Compound 61] | 100% and 101 ± 4% | – | – | – | 0.059 | 0.067 | 0.07 | 0.87 | 700 | 10 | 100 fold | –
CC[C@]1(O)C[C@H]2CN(CCc3c([nH]c4ccc(F)cc34)[C@@](C(=O)OC)(c3cc4c(cc3OC)N(C)[C@H]3[C@@](O)(C(=O)OC)[C@H](OC(C)=O)[C@]5(CC)C=CCN6CC[C@]43[C@@H]65)C2)C1 [Compound 71, 10′-fluorovinblastine, reference compound] | 48 ± 7% | – | – | – | – | – | 0.8 | – | – | – | roughly 10 fold | –
